These are literature values, as cited in patent publication US20230243814A1, “CHEMICAL CLAS[…] AND METHOD FOR PLANTS” (priority 2020, published 2023).

Series [1] concerns brain wave (EEG) activity. The settings on record: for beta wave activity (EEG) / alpha wave activity (EEG) / beta and other absolute wave activity (EEG): inhalation; for alpha wave boost: focus / beta wave boost: creativity: relative magnitude in words. As to alpha wave activity (EEG): test concentration or dose not given here. As to beta and other absolute wave activity (EEG): test concentration or dose not given here. As to beta wave activity (EEG): test concentration or dose not given here.
In series [2] the target is AChE (acetylcholinesterase) (Homo sapiens, UniProt P22303). The settings on record: relative magnitude of the activity in words.
Sequence of AChE (acetylcholinesterase) (P22303 32-614, species assumed): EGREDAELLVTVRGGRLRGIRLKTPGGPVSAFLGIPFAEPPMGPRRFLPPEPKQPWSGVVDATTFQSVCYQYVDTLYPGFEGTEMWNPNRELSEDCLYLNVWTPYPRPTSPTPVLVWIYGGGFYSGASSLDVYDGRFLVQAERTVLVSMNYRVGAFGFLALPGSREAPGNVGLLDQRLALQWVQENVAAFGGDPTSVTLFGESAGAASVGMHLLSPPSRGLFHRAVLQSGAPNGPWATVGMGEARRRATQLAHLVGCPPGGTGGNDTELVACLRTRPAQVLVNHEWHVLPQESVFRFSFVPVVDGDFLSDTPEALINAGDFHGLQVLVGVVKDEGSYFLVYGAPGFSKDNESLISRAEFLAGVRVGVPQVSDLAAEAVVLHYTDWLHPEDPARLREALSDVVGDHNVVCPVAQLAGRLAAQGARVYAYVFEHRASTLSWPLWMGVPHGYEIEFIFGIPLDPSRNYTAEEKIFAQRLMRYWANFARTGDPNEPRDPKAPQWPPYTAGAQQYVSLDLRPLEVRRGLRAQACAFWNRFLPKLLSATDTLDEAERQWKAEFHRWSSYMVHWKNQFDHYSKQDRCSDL
For series [3] the following is noted: relative magnitude of the activity in words.
The conditions of series [4]: relative magnitude of the activity in words. The source holds these as a separate data set.
For series [5] the following is noted: relative magnitude of the activity in words. The source holds these as a separate data set.
The conditions of series [6]: relative magnitude of the activity in words. This is another data set of the same source.
The conditions of series [7]: relative magnitude of the activity in words. The source holds these as a separate data set.
The conditions of series [8]: relative magnitude of the activity in words. The source holds these as a separate data set.
The test system of another series is GABA A. The settings on record: relative magnitude of the activity in words.
For series [9] the following is noted: relative magnitude of the activity in words. This is another data set of the same source.

Read-outs that look alike come from different tables or passages of the source.

`C=C(C)C1CC=C(C)CC1` (single isomer, unassigned; (+)) [(+) limonene]: the “beta wave activity (EEG)” value in [1] (all subjects) was “increase relative high beta wave activity”. Further, in series [1] (men), the “alpha wave activity (EEG)” value is listed as “no increase in alpha wave activity”; the “beta and other absolute wave activity (EEG)” value was “relative high beta activity increase”. In series [1] (women), the “alpha wave activity (EEG)” value is “increased absolute fast alpha wave activity” and the “beta wave activity (EEG)” value is given as “decreased relative mid beta wave activity”.
Take `CC1=CCC2C(C1)C2(C)C` (centres unmarked) [3 carene]: the AChEl entry in [2] was “very strong”. Moreover, the antinociceptive pain blocker result in series [3] is given as “no notable”. Also, in series [4], the analgesic pain relief entry is given as “no notable”.
Take `CC(C)=CCC[C@](C)(O)[C@@H]1CC=C(C)CC1` [a bisabolol]: the AChEl entry in [2] is given as “no notable”. Moreover, the sedative entry in series [5] is reported as “no notable”. The muscle relaxant entry in [6] is given as “very strong”. Besides, the antinociceptive pain blocker result in series [3] is given as “very strong”. Besides, in series [4], the analgesic pain relief entry is given as “no notable”.
As to `C=C/C(C)=C/C/C=C(\C)CCC=C(C)C` [alpha farnesene], the antinociceptive pain blocker entry in [3] is recorded as “no notable”. In addition, the analgesic pain relief entry in series [4] is reported as “no notable”.
As for `CC1=CC[C@H](C(C)C)C=C1` [alpha phellandrene], the AChEl entry in [2] is on record as “no notable”. Moreover, the sedative entry in [5] is recorded as “no notable”. Further, the anti depressant result in series [7] is on record as “moderate”. For the same molecule, in series [3], the antinociceptive pain blocker entry is on record as “very strong”. Also, the analgesic pain relief entry in series [4] is recorded as “moderate”.
Turning to `CC1=CCC2CC1C2(C)C` (stereo not drawn) [alpha pinene], the AChEl entry in [2] is “very strong”. Also, the sedative result in series [5] was “agonistic”. In addition, the anti depressant entry in [7] was “moderate”. For the same molecule, the anti anxiety result in series [8] was “moderate”. Besides, in series [3], the antinociceptive pain blocker result was “no notable”. Besides, the analgesic pain relief entry in series [4] is given as “weak”. Moreover, the “alpha wave boost: focus” value in series [1] (no gender qualifier) is reported as “moderate”. Also, in [1] (women only), the “beta wave boost: creativity” value is “very strong”. For the same molecule, the “GABA A Modulation” value with GABA A is listed as “moderate”. Also, the “motor stimulation (EPM)” value in [9] is listed as “moderate”.
As for `CC1=CC=C(C(C)C)CC1` [alpha terpinene], the AChEl result in series [2] is recorded as “very strong”. Also, the antinociceptive pain blocker entry in series [3] was “no notable”.
With `CC1=CC[C@@H](C(C)(C)O)CC1` [alpha terpineol], the AChEl result in series [2] is “no notable”. In addition, the sedative result in series [5] is “moderate”. Besides, the muscle relaxant entry in [6] was “very strong”. The antinociceptive pain blocker entry in series [3] is “very strong”. Further, the analgesic pain relief entry in [4] was “very strong”.
For `C=C1CC/C=C(\C)CC[C@@H]2[C@@H]1CC2(C)C` [beta caryophyllene], in series [2], the AChEl result is given as “no notable”. Also, in series [5], the sedative result was “no notable”. Further, the anti depressant result in series [7] is on record as “moderate”. In addition, the anti anxiety entry in [8] was “moderate”. In addition, the antinociceptive pain blocker result in series [3] is recorded as “no notable”. For the same molecule, the analgesic pain relief result in [4] is reported as “moderate”.
On to `C=CC(=C)CC/C=C(\C)CCC=C(C)C` [beta farnesene], for which, in [3], the antinociceptive pain blocker entry is “no notable”. In addition, the analgesic pain relief result in series [4] is “no notable”.
In the case of `C=CC(=C)CCC=C(C)C` [beta myrcene], in series [2], the AChEl entry was “no notable”. Further, the sedative entry in series [5] was “weak”. Further, in [6], the muscle relaxant entry is listed as “moderate”. The antinociceptive pain blocker result in series [3] is recorded as “no notable”. For the same molecule, the analgesic pain relief entry in series [4] is “moderate”.
For `C=C/C(C)=C/CC=C(C)C` [beta ocimene], in series [2], the AChEl entry is listed as “very strong”. Also, the antinociceptive pain blocker entry in [3] is “no notable”. Moreover, in series [4], the analgesic pain relief entry is reported as “no notable”.
As for `C=C1CCC2CC1C2(C)C` (stereo not drawn) [beta pinene], in series [2], the AChEl entry is on record as “no notable”. In addition, the sedative result in series [5] is recorded as “moderate”. The anti depressant result in [7] is recorded as “moderate”. In [3], the antinociceptive pain blocker entry is “no notable”. Besides, the analgesic pain relief result in series [4] was “moderate”. The “beta wave boost: creativity” value in series [1] (women only) is “very strong”.
Turning to `C=C1C2CCC(C2)C1(C)C` (centres unmarked) [camphene], the AChEl entry in series [2] is on record as “no notable”. Besides, in series [5], the sedative entry was “moderate”. Further, the antinociceptive pain blocker result in series [3] is recorded as “no notable”. Moreover, the analgesic pain relief result in series [4] is on record as “no notable”.
As for `CC12CCC(CC1)C(C)(C)O2` [eucalyptol], in [2], the AChEl entry is on record as “very strong”. Moreover, the antinociceptive pain blocker entry in series [3] is listed as “no notable”.
For `C=CCc1ccc(O)c(OC)c1` [eugenol], in [3], the antinociceptive pain blocker result is “very strong”.
As for `CC12CCC(C1)C(C)(C)C2O` (centres unmarked) [fenchol], the AChEl entry in series [2] is given as “no notable”. Moreover, in series [5], the sedative entry is “moderate”. The antinociceptive pain blocker entry in [3] is “no notable”. In addition, the analgesic pain relief entry in series [4] was “no notable”.
In the case of `C[C@H]1CC[C@@H](C(C)(C)O)CC2=C1CC[C@@H]2C` [guiaol], in series [2], the AChEl result is “no notable”. The sedative entry in [5] is on record as “no notable”. Moreover, the antinociceptive pain blocker entry in [3] was “no notable”.
For the molecule `C/C1=C\CC/C(C)=C/CC(C)(C)/C=C/C1` [humulene], the AChEl entry in series [2] is “no notable”. For the same molecule, in series [5], the sedative entry was “no notable”. For the same molecule, in [3], the antinociceptive pain blocker entry is recorded as “no notable”. For the same molecule, the analgesic pain relief result in series [4] is “no notable”.
`C=C(C)[C@H]1CC=C(C)CC1` [limonene]: in series [2], the AChEl result is given as “agonistic”. The anti depressant result in [7] is listed as “moderate”. Also, the antinociceptive pain blocker entry in [3] was “no notable”. Further, the analgesic pain relief entry in series [4] is given as “moderate”. The “beta wave boost: creativity” value in series [1] (women only) is “very strong”.
As to `C=CC(C)(O)CCC=C(C)C` (centres unmarked) [linalool], the AChEl entry in series [2] was “no notable”. In addition, in series [5], the sedative entry is on record as “very strong”. In series [7], the anti depressant entry was “very strong”. Further, the anti anxiety result in [8] is “very strong”. Moreover, in [3], the antinociceptive pain blocker result is recorded as “very strong”. In series [4], the analgesic pain relief result is listed as “moderate”. Besides, in the series with GABA A, the “GABA A Modulation” value is on record as “very strong”.
For the molecule `C=CC(C)(O)CCC=C(C)CCC=C(C)C` (centres unmarked) [nerolidol], in [2], the AChEl result was “no notable”. Also, in series [5], the sedative result is listed as “very strong”. The anti anxiety result in [8] was “very strong”. Further, the antinociceptive pain blocker result in series [3] was “very strong”. The analgesic pain relief result in series [4] is “moderate”.
Turning to `CC1=CCC(=C(C)C)CC1` [terpinolene], the AChEl entry in series [2] is given as “no notable”. In [5], the sedative result was “weak”. In [6], the muscle relaxant entry is “moderate”. Moreover, in series [3], the antinociceptive pain blocker result is reported as “no notable”. Moreover, the analgesic pain relief result in [4] was “no notable”. In addition, in series [1] (all subjects), the “alpha wave activity (EEG)” value is recorded as “increase relative fast alpha wave activity” and the “beta wave activity (EEG)” value is listed as “decrease mid beta wave activity”. Also, in series [1] (men), the “alpha wave activity (EEG)” value is on record as “no increase in alpha wave activity”; the “beta and other absolute wave activity (EEG)” value is listed as “decrease in relative mid beta wave activity”. The “alpha wave activity (EEG)” value in [1] (women) is recorded as “increased absolute fast alpha wave activity”. The “alpha wave boost: focus” value in series [1] (women only) is listed as “very strong”.
Take (+) alpha pinene: in series [1] (men), the “alpha wave activity (EEG)” value is given as “no impact on alpha waves”; the “beta and other absolute wave activity (EEG)” value was “significant decreases in absolute waves such as theta, beta, low beta and high beta”. For the same molecule, in series [1] (women), the “alpha wave activity (EEG)” value was “significantly (P<0.05) increased”; the “beta wave activity (EEG)” value was “absolute beta wave and absolute high beta wave activity significantly (P<0.05) increased”.
(+) beta pinene: in series [1] (men), the “alpha wave activity (EEG)” value is “no impact on alpha waves”; the “beta and other absolute wave activity (EEG)” value was “no significant changes in the absolute waves”. In addition, in series [1] (women), the “alpha wave activity (EEG)” value was “significantly increased” and the “beta wave activity (EEG)” value was “significantly increased”.
